Reference: patent US20100204460A1, “NATURAL BRASSINOSTEROIDS FOR USE FOR TREATING HYPERPROLIFERATION, TREATING PROLIFERATIVE DISEASES AND REDUCING ADVERSE EFFECTS OF STEROID DYSFUNCTION IN MAMMALS, PHARMACEUTICAL COMPOSITION AND ITS USE” (priority 2007, published 2010)

How the values were obtained:
Type in all cases: cell-based
MDA-MB-468 cells [1] = assay: BrdU incorporation assay, MDA-MB-468
Procedure: (§1) To analyze if the inhibition in cell viability was due to decreased cell proliferation, we measured DNA synthesis in the presence of BRs. The effect of brassinosteroids 9 or 6 on cell proliferation and DNA replication of the cancer cells was measured by BrdU incorporation assay. This immunostaining was based on nuclear incorporation of bromodeoxyuridine (BrdU) into DNA in place of thymidine during the S-phase of cell cycle detected by anti-specific-BrdU antibody following membrane permeabilization as described previously (Gratzner, Science. 1982, 218, 474-475). […] The BrdU reagent (0.1 mM; Sigma, MO, USA) was added in culture medium with cells for 4 h in a CO2 incubator at 37° C. After incubation the cells were washed three times with PBS and fixed with cold acetone-methanol (1:1, v/v) for 10 min. The cells were denaturated by HCl (1:5; Lachema, Czech Republic) and incubated with anti-specific-BrdU antibody (diluted 1:100 in PBS; clone Bu20a, DakoCytomation, Denmark) for 60 min in the dark. The cells were then washed three times in PBS (10 mM, pH 7.4) and incubated with goat anti-mouse fluorescein isothiocyanate (FITC)-labeled secondary antibody (Sigma, MO, USA) for 60 min in the dark. The cells were then washed three times in PBS and incubated with DAPI (50 μg/mL; Sigma, MO, USA) for 10 min in the dark. The coverslips with cells were washed in deionized water and mounted on glass slides, using the hydrophilic medium Mowiol (Calbiochem, Calif., USA) in glycerol-PBS (1:3, v/v) for fluorescence. Cells were visualized using microscopy and those incorporating BrdU (S phase cells) were counted in at least 25 fields and compared with the total number of all cells.

[2] = test system: malignant human melanoma cell line G361; assay: Calcein AM cytotoxicity assay, G 361; settings: G 361; exposure 72 h (b71 says 96 h); mean ± SD; read-out: IC50 assessed by Calcein AM assay of surviving cells
LNCaP cells = assay: BrdU incorporation assay, LNCaP
Procedure: as §1

MDA-MB-468 cells [3] = assay: Cell cycle distribution by flow cytometry, MDA-MB-468; settings: IC50, 24 h; for Apoptosis subG1 fraction: control 10%; for Cell cycle distribution G2/M: control 17%; for Cell cycle distribution S: control 31%; for Cell cycle distribution G1: control 52%
Description: In the MCF-7 breast cancer cell line that has been the most widely studied experimental cell system, the typical growth inhibitory response to antiestrogens is decrease in the proportion of cells synthesising DNA (S phase) after antiestrogen treatment. This decrease in S phase coincides with an increase in the proportion of cells in G0/G1 phase. The activity of the androgen receptor (AR) is also regulated by alterations in cell signaling. There has been reported ligand independent activation of AR in prostate cancer cells by different growth factors. As the AR can be activated in the absence of hormone, it appears that the conditions may be more restricted than those observed for ER. Use of physiologic doses of ligand (dihydrotestosterone, DHT) is of importance as the LNCaP cells proliferate only at DHT concentration of 10^−9 M or lower. […] In contrast to proliferation, transactivation of AR specific target genes (e.g. PSA) continues to increase with DHT doses of 10^−10 M and higher. It might be accepted for estrogen or androgen receptors as stronger cytotoxic activities of brassinosteroids 9 or 6 on hormone-sensitive (MCF-7, LNCaP) compared to hormone-insensitive (MDA-MB-468, DU-145) cell lines were found. Therefore we explored the possibility of cell cycle perturbation by BRs in different cancer cell lines. Flow cytometry was used to evaluate the number of cells in the particular phases of the cell cycle, including subG1 peak detection. Control and treated cells were washed twice with cold PBS and centrifuged at 360×g for 10 min at 4° C., and fixed with chilled ethanol (70%; v/v) by low-speeded vortexing. For detection of DNA content analysis, propidium iodide staining was used. The cells were analyzed using a FACSCalibur flow cytometer (BD Biosciences, San Jose, Calif.).
Flow-cytometric detection of apoptosis. Several studies have declared that the induction of apoptosis may be cell cycle-dependent. Therefore, in our next series of experiments, we tested if brassinosteroids 9 or 6 cause apoptosis of the breast and prostate cancer cells via cell cycle blockage. From this reason we carried out DNA cell cycle analysis by flow cytometry based on detection of endonucleolytic DNA degradation that results in extraction of low molecular weight DNA from the cells. […] The subG1 peak containing apoptotic bodies was however not observed in MCF-7 cells.

[4] = treated at IC50 for 6 h, control 64 ± 1.5
[5] = treated at IC50 for 12 h, control 58 ± 3.0
[6] = treated at IC50 for 24 h, control 64 ± 5.6
[7] = treated at IC50 for 6 h, control 44 ± 6.0
[8] = treated at IC50 for 12 h, control 52 ± 7.6
[9] = treated at IC50 for 24 h, control 59 ± 8.0

Row | Structure (SMILES) | percentage of proliferating BrdU positive cells (MDA-MB-468 cells [1]; [4]) [%] | percentage of proliferating BrdU positive cells (MDA-MB-468 cells [1]; [5]) [%] | percentage of proliferating BrdU positive cells (MDA-MB-468 cells [1]; [6]) [%] | IC50 [2] [µM] | percentage of proliferating BrdU positive cells (LNCaP cells; [7]) [%] | percentage of proliferating BrdU positive cells (LNCaP cells; [8]) [%] | percentage of proliferating BrdU positive cells (LNCaP cells; [9]) [%] | Apoptosis subG1 fraction (MDA-MB-468 cells [3]) [%] | Cell cycle distribution G2/M (MDA-MB-468 cells [3]) [%] | Cell cycle distribution S (MDA-MB-468 cells [3]) [%] | Cell cycle distribution G1 (MDA-MB-468 cells [3]) [%]
1 | CC(C)[C@@H](C)[C@@H](O)[C@H](O)[C@@H](C)[C@H]1CC[C@H]2[C@@H]3COC(=O)[C@H]4C[C@H](O)[C@H](O)C[C@]4(C)[C@H]3CC[C@]12C [Brassinosteroid 6, 24-Epibrassinolide] | 53 ± 4.4 | 55 ± 3.5 | 43 ± 3.6 | > 50 | 36 ± 5.5 | 31 ± 2.0 | 29 ± 4.7 | 75 | 2 | 10 | 88
2 | CC[C@@H](C(C)C)[C@@H](O)[C@H](O)[C@@H](C)[C@H]1CC[C@H]2[C@@H]3CC(=O)[C@H]4C[C@H](O)[C@H](O)C[C@]4(C)[C@H]3CC[C@]12C [Brassinosteroid 9, 28-Homocastasterone] | 55 ± 5.0 | 48 ± 4.6 | 28 ± 4.6 | > 50 | 25 ± 3.0 | 28 ± 4.6 | 27 ± 2.1 | 35 | 9 | 17 | 74
